The values that follow come from US6960589B2, “Benzimidazoles that are useful in treating sexual dysfunction” (Abbott Laboratories, priority 2001, dated 2005).

Where “and” joins values, the source holds several entries; their conditions need not be identical. Equal values may be shown once.

Tested on in the first data set: not given
Experiment: not given
Conditions: not given
In general, melting point refers to the temperature, or range, at which the solid turns liquid. The compound `N#Cc1ccccc1N1CCN(Cc2nc3ccccc3[nH]2)CC1` [Example 12, 2-[4-(1H-benzimidazol-2-ylmethyl)piperazin-1-yl]benzonitrile] returned a melting point of 236 to 237 °C.

Turning to `CC1CN(c2ccccn2)CCN1Cc1nc2ccccc2[nH]1` (centres unmarked) [Example 24, 2-[(2-methyl-4-pyridin-2-ylpiperazin-1-yl)methyl]-1H-benzimidazole], the melting point lay in the range of 207 to 209 °C.

`Fc1cccnc1N1CCN(Cc2nc3ccccc3[nH]2)CC1` [Example 28, 2-{[4-(3-fluoropyridin-2-yl)piperazin-1-yl]methyl}-1H-benzimidazole] returned a melting point of 210 to 212 °C.

In turn, `N#Cc1cccnc1N1CCN(Cc2nc3ccccc3[nH]2)CC1` [Example 4, 2-[4-(1H-benzimidazol-2-ylmethyl)piperazin-1-yl]nicotinonitrile] had a melting point of 208 to 210 °C.

The compound `CSc1ccccc1N1CCN(Cc2nc3ccccc3[nH]2)CC1` [Example 18, 2-({4-[2-(methylthio)phenyl]piperazin-1-yl}methyl)-1H-benzimidazole] yielded a melting point of 214 to 216 °C.

`c1cnc(N2CCN(Cc3nc4ccccc4[nH]3)CC2)nc1` [Example 2, 2-[(4-pyrimidin-2-ylpiperazin-1-yl)methyl]-1H-benzimidazole]: the melting point lay within 198 to 200 °C.

As to `CN(C)C(=O)n1c(CN2CCN(c3ccccn3)CC2)nc2ccccc21` [Example 10, N,N-dimethyl-2-[(4-pyridin-2-ylpiperazin-1-yl)methyl]-1H-benzimidazole-1-carboxamide], the melting point lay in the range of 174 to 176 °C.

`CCOc1ccccc1N1CCN(Cc2nc3ccccc3[nH]2)CC1` [Example 19, 2-{[4-(2-ethoxyphenyl)piperazin-1-yl]methyl}-1H-benzimidazole] displayed a melting point of 95 to 100 °C.

On to `C[C@@H]1CN(c2ccccn2)CCN1Cc1nc2ccccc2[nH]1` [Example 26, 2-{[(2R)-2-methyl-4-pyridin-2-ylpiperazin-1-yl]methyl}-1H-benzimidazole], for which the melting point lay in the range of 151 to 153 °C.

With `C[C@H]1CN(c2ccccn2)CCN1Cc1nc2ccccc2[nH]1` [Example 25, 2-{[(2S)-2-methyl-4-pyridin-2-ylpiperazin-1-yl]methyl}-1H-benzimidazole], the melting point lay within 149 to 151 °C.

`Oc1ccccc1N1CCN(Cc2nc3ccccc3[nH]2)CC1` [Example 20, 2-[4-(1H-benzimidazol-2-ylmethyl)piperazin-1-yl]phenol] returned a melting point of 208 to 216 °C.

As for `Fc1ccccc1N1CCN(Cc2nc3ccccc3[nH]2)CC1` [Example 14, 2-{[4-(2-fluorophenyl)piperazin-1-yl]methyl}-1H-benzimidazole], the melting point lay within 262 to 264 °C.

Compound `O=C(N1CCCC1)n1c(CN2CCN(c3ccccn3)CC2)nc2ccccc21` [Example 9, 2-[(4-pyridin-2-ylpiperazin-1-yl)methyl]-1-(pyrrolidin-1-ylcarbonyl)-1H-benzimidazole] gave a melting point of 120 to 121 °C.

For `Oc1ccc(N2CCN(Cc3nc4ccccc4[nH]3)CC2)nc1` [6-[4-(1H-benzimidazol-2-ylmethyl)piperazin-1-yl]pyridin-3-ol], the melting point was 144 to 145 °C.

`c1ccc2[nH]c(CN3CCN(c4nccs4)CC3)nc2c1` [Example 7, 2-{[4-(1,3-thiazol-2-yl)piperazin-1-yl]methyl}-1H-benzimidazole] came in with a melting point of 203 to 205 °C.

Consider `Oc1ccc(N2CCN(Cc3nc4ccccc4[nH]3)CC2)cc1` [Example 17, 4-[4-(1H-benzimidazol-2-ylmethyl)piperazin-1-yl]phenol], for which the melting point lay within 206 to 209 °C.

The subject of a further data set is Wistar rats. The data set is described as follows: Rat penile erection model. It is filed as in vivo. The following applies: rats, dose 0.1 μmol/kg, observed 60 minutes after dosing. As for the experimental part: Wistar rats were used as a primary animal model to study penile erection in vivo. All experiments were carried out between 9:00 AM and 3:00 PM in a diffusely illuminated testing room with a red light. Animals were weighed and allowed to adapt to the testing room for 60 minutes before the beginning of experiments. Rats were placed individually in a transparent cage (20×30×30 cm) after drug injection.
(L)-Ascorbic acid in saline (1 mg/mL) was used as vehicle. Twelve animals were used per dose.
In the case of `CN1CCc2cccc3c2[C@H]1Cc1ccc(O)c(O)c1-3` [Apomorphine, (6aR) 5,6,6a,7-tetrahydro-6-methyl-4H-dibenzo[de,g]quinoline-10,11-diol, reference compound], the “Incidence (%) of penile erection (animals exhibiting 1 or more erections)” value was 83% and 93%.

Still in this data set, the particulars now being: subcutaneous administration, doses of 0.01 μmol/kg to 0.10 μmol/kg.
Turning to `c1ccc(N2CCN(Cc3nc4ccccc4[nH]3)CC2)nc1` [2-[(4-pyridin-2-ylpiperazin-1-yl)methyl]-1H-benzimidazole], the “Induction of penile erections in rats (result in words)” value is reported as “induced statistically significant penile erections”.

On to `Oc1ccc(N2CCN(Cc3nc4ccccc4[nH]3)CC2)nc1` [6-[4-(1H-benzimidazol-2-ylmethyl)piperazin-1-yl]pyridin-3-ol], for which the “Induction of penile erections in rats (result in words)” value was “induced statistically significant penile erections”.

For another data set, the system named is Male Fitch ferrets.
Experiment: not given
Also on record: species or system ferret. The following applies: in vivo, sc. As to the method: Male Fitch ferrets (body weights 1.0-1.5 kg) were obtained from Marshall Farms. Ferrets were fasted overnight before experimentation. Apomorphine or a compound of the present invention was administrated subcutaneously; animals were placed individually in observation cages and the drug-induced emesis and signs of nausea were determined (by direct observation) for a period of 90 minutes following drug injection. Nausea was characterized by behaviors such as licking, gagging, backing, head burying, and intense abdominal grooming. Emesis was usually preceded by these behaviors and was characterized by rhythmic abdominal contractions which were associated with vomiting or retching movement.
Sterile saline was used as vehicle. Six animals were used per dose.
Turning to `c1ccc(N2CCN(Cc3nc4ccccc4[nH]3)CC2)nc1` [2-[(4-pyridin-2-ylpiperazin-1-yl)methyl]-1H-benzimidazole], the “Induction of emesis in ferrets (result in words)” value was “did not induce emesis”.
